Test results taken from patent US11685726B2, “Pharmaceutical compositions of 6-(2-(2H-tetrazol-5-yl)ethyl)-6-fluorodecahydroisoquinoline-3-carboxylic acid and ester derivatives thereof” (Sea Pharmaceuticals LLC, priority 2020, dated 2023).

How the values were obtained:
AMPA receptor = experiment: Whole cell patch-clamp recording of s-AMPA induced currents in pyramidal neurons of rat brain prefrontal cortex slices; format: cell-based; conditions: 20 μM s-AMPA, rat brain cortex slices
Description: (§1) Additionally biological activity of compounds as antagonists of AMPA receptors or NMDA receptors (also called ionotropic glutamate-gated ion channels) were conducted using ex vivo functional electrophysiological assays of pyramidal neurons in slices of rat brain prefrontal cortex. Effects of test compounds cf. reference compounds were studied by whole cell patch-clamp electrophysiology recordings of s-AMPA-induced currents or NMDA-induced currents, respectively, using rat brain slice prefrontal cortex (layer V) pyramidal neurons.
Male Sprague Dawley rats were supplied by Charles River Laboratories (Wilmington, Mass. USA) and were housed 4 per cage within a temperature (20.5-23.5° C.) and humidity (30-80%) controlled environment on a 12 hour light/dark cycle with access to food (Teklad Global Soy Protein, Cat. No. T.2920X10, Envigo, Indianapolis, Ind., USA) and water ad libitum. At 4-6 weeks of age rats were terminally anaesthetized using isofluorane [(1-chloro-2,2,2-trifluoroethyl difluoromethyl ether) supplied by Baxter Healthcare Corp, Deerfield, Ill., USA], and decapitated. The brain was removed and 300 μm thick coronal prefrontal cortex (PFC) or sagittal hippocampal slices were sectioned using a Vibratome microtome. After brain removal, and throughout slicing, the tissue was submerged in ice cold […] cerebrospinal fluid (aCSF). Once slices were cut, they were transferred to a beaker containing aCSF and left at room temperature for a minimum of 1 hour before commencing electrophysiological recordings. After this period, individual slices were transferred to a recording chamber continuously perfused with aCSF at a rate of 4-6 mL/min before commencing experiment protocols. aCSF composition (in mM): NaCl, 127; KCl, 1.9; KH2PO4, 1.2; CaCl2), 2.4; MgCl2, 1.3; NaHCO3, 26; D-glucose, 10; in water equilibrated with 95% Oxygen gas-5% CO2 gas (reagent suppliers listed below). Experiments investigating NMDA currents had aCSF supplemented with 10 μM glycine (reagents suppliers listed below). All experiments were conducted following protocols with the approval of an Institutional Animal Care and Use Committee (IACUC).
Whole cell patch-clamp recordings were performed from Layer V prefrontal cortex pyramidal neurons at room temperature using the ‘visualized’ version of the patch-clamp technique. […]
(§2) All test compound experiments were carried out in the voltage-clamp recording configuration of the whole cell patch-clamp technique and all recordings performed at a holding potential of −60 mV. Recordings were monitored on a Dell personal computer (PC) running Axon pClamp software (Molecular Devices, Sunnyvale, Calif., USA) and digitized at 10 kHz. […]

NMDA receptor = experiment: Whole cell patch-clamp recording of NMDA induced currents in pyramidal neurons of rat brain prefrontal cortex slices; format: cell-based; conditions: Tested at 30 pM (so in the source); 50 μM NMDA; rat brain cortex slices
Description: as §1
Male Sprague Dawley rats were supplied by Charles River Laboratories (Wilmington, Mass. USA) and were housed 4 per cage within a temperature (20.5-23.5° C.) and humidity (30-80%) controlled environment on a 12 hour light/dark cycle with access to food (Teklad Global Soy Protein, Cat. No. T.2920X10, Envigo, Indianapolis, Ind., USA) and water ad libitum. […]
as §2

[1] = Hydrolysis by rat plasma in vitro at 37 degrees C; format: in vitro ADME
[2] = Tested at 1 pM (so in the source)

hydrolysis to Compound 1 by rat plasma in vitro ([1]; incubated at 37 degrees C)	hydrolysis by rat plasma after esterase inhibitor pretreatment ([1]; plasma pretreated 37 degrees C 5 min with 10 micromolar methyl arachidonoyl fluoro phosphonate)	SMILES	% inhibition +/- SEM of s-AMPA induced currents in neurons (AMPA receptor; [2])	% inhibition +/- SEM of s-AMPA induced currents in neurons (AMPA receptor; Tested at 10 pM (so in the source))	% inhibition +/- SEM of NMDA induced currents in neurons (NMDA receptor)
–	–	O=C(O)[C@@H]1C[C@H]2C[C@@](F)(CCc3nnn[nH]3)CC[C@H]2CN1 [Compound 1, (3S,4aS,6S,8aR)-6-fluoro-6-[2-(1H-1,2,3,4-tetrazol-5-yl)ethyl]-decahydroisoquinoline-3-carboxylic acid]	55.6 ± 5.8 (n = 3) %	>90 (n = 1) %	61.0 ± 6.3 (n = 3) %
within minutes	blocked	O=C(O)[C@@H]1C[C@H]2CC(F)(CCc3nnn[nH]3)CC[C@H]2CN1 (stereo in doubt) [Compound 2, (3S,4aS,6R,8aR)-6-fluoro-6-[2-(1H-1,2,3,4-tetrazol-5-yl)ethyl]-decahydroisoquinoline-3-carboxylic acid]	21.4 ± 2.1 (n = 3) %	–	–
